The subject of this test is B6C3F1 mice, B16 melanoma ip, median survival T/C. In words: NCI In Vivo Anticancer Drug Screen. Data for tumor model B16 Melanoma (intraperitoneal) in B6C3F1 mice. The following applies: endpoint: median survival time, higher = longer survival. In a few lines: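 Tumor-bearing mice received test compound; a separate group got vehicle only. Survival was then compared, with results reported as treated over control.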

[1] abbreviates: dose: 12.5 mg/kg/injection, schedule: Q01DX009 (ip), vehicle: saline with Tween-80.
Setting [2] is: dose: 25.0 mg/kg/injection, schedule: Q01DX009 (ip), vehicle: saline with Tween-80.
The mark [3] stands for this setting: dose: 50.0 mg/kg/injection, schedule: Q01DX009 (ip), vehicle: saline with Tween-80.

From PubChem BioAssay AID200 (DTP/NCI, 2004) come the findings set out here.

Each structure is given as a SMILES string. Values joined by “and” are separate entries in the source; they are usually repeats but may differ in a detail not shown here. Equal entries are not always repeated. Inconclusive results and toxic doses are left out. Where a SMILES comes first, the peptide text is derived from it. [ ]: non-standard residue; d: D form. The star is where a group is joined. Nle = CCCC[CH](N)C(=O)O; Cbz = O=C(OCc1ccccc1)*; Nva = CCC[CH](N)C(=O)O

As to `CC[C@@H](C)[C@@H]1NC(=O)C(NC(=O)C(CC(C)C)N(C)C(=O)C2CCCN2C(=O)C(C)O)C(C)OC(=O)C(Cc2ccc(OC)cc2)N(C)C(=O)C2CCCN2C(=O)C(CC(C)C)NC(=O)C(C)C(=O)C(C(C)C)OC(=O)C[C@H]1O` (stereo partly drawn), the T/C (dose: 5.0 micrograms/kg/injection, schedule: Q01DX009 (ip), vehicle: distilled water + alcohol) is 102 % of control; the T/C (dose: 10.0 micrograms/kg/injection, schedule: Q01DX009 (ip), vehicle: distilled water + alcohol) was 111 % of control and 112 % of control; the T/C (dose: 10.0 micrograms/kg/injection, schedule: Q01DX009 (ip), vehicle: other) was 120 % of control; the T/C (dose: 20.0 micrograms/kg/injection, schedule: Q01DX005 (ip), vehicle: other) was 120 % of control; the T/C (dose: 20.0 micrograms/kg/injection, schedule: Q01DX005 (iv), vehicle: other) was 105 % of control; the T/C (dose: 20.0 micrograms/kg/injection, schedule: Q01DX005 (sc), vehicle: other) was 111 % of control. Besides, the T/C by setting is: (dose: 20.0 micrograms/kg/injection, schedule: Q01DX009 (ip), vehicle: distilled water + alcohol) 117 % of control and 123 % of control; (dose: 40.0 micrograms/kg/injection, schedule: Q01DX005 (iv), vehicle: other) 101 % of control and 104 % of control; (dose: 40.0 micrograms/kg/injection, schedule: Q01DX005 (sc), vehicle: other) 108 % of control; (dose: 40.0 micrograms/kg/injection, schedule: Q01DX009 (ip), vehicle: distilled water + alcohol) 124 % of control; (dose: 40.0 micrograms/kg/injection, schedule: Q01DX009 (ip), vehicle: other) 153 % of control; (dose: 40.0 micrograms/kg/injection, schedule: Q03HX008 (ip), vehicle: saline) 124 % of control. For the same molecule, the T/C (dose: 71.0 micrograms/kg/injection, schedule: Q01DX009 (ip), vehicle: other) is 151 % of control; the T/C (dose: 80.0 micrograms/kg/injection, schedule: Q01DX005 (ip), vehicle: other) was 122 % of control; the T/C (dose: 80.0 micrograms/kg/injection, schedule: Q01DX005 (iv), vehicle: other) is 112 % of control and 96 % of control; the T/C (dose: 80.0 micrograms/kg/injection, schedule: Q01DX005 (oral), vehicle: other) is 100 % of control; the T/C (dose: 80.0 micrograms/kg/injection, schedule: Q01DX005 (sc), vehicle: other) is 113 % of control and 103 % of control; the T/C (dose: 80.0 micrograms/kg/injection, schedule: Q01DX009 (ip), vehicle: distilled water + alcohol) was 153 % of control. Moreover, the T/C by setting is: (dose: 80.0 micrograms/kg/injection, schedule: Q01DX009 (ip), vehicle: other) 163 % of control; (dose: 106.0 micrograms/kg/injection, schedule: Q01DX009 (ip), vehicle: other) 159 % of control; (dose: 160.0 micrograms/kg/injection, schedule: Q01DX001 (iv), vehicle: other) 102 % of control; (dose: 160.0 micrograms/kg/injection, schedule: Q01DX001 (sc), vehicle: other) 106 % of control; (dose: 160.0 micrograms/kg/injection, schedule: Q01DX005 (iv), vehicle: other) 104 % of control and 106 % of control; (dose: 160.0 micrograms/kg/injection, schedule: Q01DX005 (oral), vehicle: other) 119 % of control and 105 % of control. Moreover, the T/C is 110 % of control and 122 % of control (dose: 160.0 micrograms/kg/injection, schedule: Q01DX005 (sc), vehicle: other); 162 % of control and 164 % of control (dose: 160.0 micrograms/kg/injection, schedule: Q01DX009 (ip), vehicle: distilled water + alcohol); 163 % of control (dose: 160.0 micrograms/kg/injection, schedule: Q01DX009 (ip), vehicle: other); 151 % of control (dose: 160.0 micrograms/kg/injection, schedule: Q01DX009 (ip), vehicle: saline); 99 % of control and 106 % of control (dose: 320.0 micrograms/kg/injection, schedule: Q01DX001 (iv), vehicle: other); 99 % of control (dose: 320.0 micrograms/kg/injection, schedule: Q01DX001 (oral), vehicle: other). For the same molecule, the T/C (dose: 320.0 micrograms/kg/injection, schedule: Q01DX001 (sc), vehicle: other) was 102 % of control; the T/C (dose: 320.0 micrograms/kg/injection, schedule: Q01DX005 (ip), vehicle: other) is 123 % of control; the T/C (dose: 320.0 micrograms/kg/injection, schedule: Q01DX005 (iv), vehicle: other) is 104 % of control and 106 % of control; the T/C (dose: 320.0 micrograms/kg/injection, schedule: Q01DX005 (oral), vehicle: other) is 104 % of control and 105 % of control; the T/C (dose: 320.0 micrograms/kg/injection, schedule: Q01DX005 (sc), vehicle: other) is 94 % of control and 105 % of control; the T/C (dose: 640.0 micrograms/kg/injection, schedule: Q01DX001 (ip), vehicle: other) is 116 % of control. Also, the T/C reads like this: (dose: 640.0 micrograms/kg/injection, schedule: Q01DX001 (iv), vehicle: other) 102 % of control and 108 % of control; (dose: 640.0 micrograms/kg/injection, schedule: Q01DX001 (oral), vehicle: other) 99 % of control; (dose: 640.0 micrograms/kg/injection, schedule: Q01DX001 (sc), vehicle: other) 117 % of control and 102 % of control; (dose: 640.0 micrograms/kg/injection, schedule: Q01DX005 (oral), vehicle: other) 100 % of control and 107 % of control; (dose: 1280.0 micrograms/kg/injection, schedule: Q01DX001 (ip), vehicle: other) 124 % of control; (dose: 1280.0 micrograms/kg/injection, schedule: Q01DX001 (ip), vehicle: saline) 117 % of control. Moreover, the T/C by setting is: (dose: 1280.0 micrograms/kg/injection, schedule: Q01DX001 (iv), vehicle: other) 118 % of control and 106 % of control; (dose: 1280.0 micrograms/kg/injection, schedule: Q01DX001 (oral), vehicle: other) 103 % of control and 108 % of control; (dose: 1280.0 micrograms/kg/injection, schedule: Q01DX001 (sc), vehicle: other) 118 % of control and 100 % of control; (dose: 1280.0 micrograms/kg/injection, schedule: Q01DX005 (oral), vehicle: other) 97 % of control and 102 % of control; (dose: 2560.0 micrograms/kg/injection, schedule: Q01DX001 (oral), vehicle: other) 114 % of control and 100 % of control; (dose: 2560.0 micrograms/kg/injection, schedule: Q01DX001 (sc), vehicle: other) 112 % of control. The T/C is 99 % of control and 100 % of control (dose: 2560.0 micrograms/kg/injection, schedule: Q01DX005 (oral), vehicle: other); 101 % of control and 105 % of control (dose: 5120.0 micrograms/kg/injection, schedule: Q01DX001 (oral), vehicle: other); 105 % of control (dose: 10240.0 micrograms/kg/injection, schedule: Q01DX001 (oral), vehicle: other).
As for `[Cl][Pt+2][Cl].[NH-]c1cc2ccccc2cc1[NH-]`, the T/C reads like this: (dose: 20.0 mg/kg/injection, schedule: Q01DX009 (ip), vehicle: saline with Tween-80) 89 % of control; (dose: 40.0 mg/kg/injection, schedule: Q01DX009 (ip), vehicle: saline with Tween-80) 104 % of control; (dose: 80.0 mg/kg/injection, schedule: Q01DX009 (ip), vehicle: saline with Tween-80) 98 % of control; (dose: 160.0 mg/kg/injection, schedule: Q01DX009 (ip), vehicle: saline with Tween-80) 99 % of control; (dose: 320.0 mg/kg/injection, schedule: Q01DX009 (ip), vehicle: saline with Tween-80) 111 % of control.
Consider `CCOc1ccc(NC(=O)C(C(C)N2CCCCC2)N2CCCCC2)cc1` (stereo not drawn), for which the T/C was 102 % of control under setting [1], 94 % of control under setting [2] and 93 % of control under setting [3].
Consider `O=S1(=O)CCCO1`, for which the T/C by setting is: (dose: 12.5 mg/kg/injection, schedule: Q01DX009 (ip), vehicle: saline) 95 % of control; (dose: 25.0 mg/kg/injection, schedule: Q01DX009 (ip), vehicle: saline) 99 % of control; (dose: 50.0 mg/kg/injection, schedule: Q01DX009 (ip), vehicle: saline) 94 % of control.
As to `CCCCNC(C)(C)COC(=O)/C=C/c1ccc(OCCCC)cc1`, the T/C was 98 % of control under setting [1], 93 % of control under setting [2] and 90 % of control under setting [3].
For the molecule `CCCCC(NC(=O)C(CCC)NC(=O)OCc1ccccc1)C(=O)O` (stereo not drawn) (Cbz-[Nva]-[Nle]-OH; configuration not given here), the T/C runs as follows: (dose: 100.0 mg/kg/injection, schedule: Q01DX009 (ip), vehicle: Klucel (hydroxypropylcellulose) (HPC)) 104 % of control; (dose: 200.0 mg/kg/injection, schedule: Q01DX009 (ip), vehicle: Klucel (hydroxypropylcellulose) (HPC)) 101 % of control.
For the molecule `Cn1ccc(=Nc2ccc(NC(=O)c3ccc(N=c4ccn(C)c5ccc([N+](=O)[O-])cc45)cc3[N+](=O)[O-])cc2)cc1`, the T/C was 105 % of control under setting [1]; 93 % of control under setting [2]; 91 % of control under setting [3]; 94 % of control (dose: 100.0 mg/kg/injection, schedule: Q01DX009 (ip), vehicle: saline with Tween-80); 96 % of control (dose: 200.0 mg/kg/injection, schedule: Q01DX009 (ip), vehicle: saline with Tween-80); 96 % of control (dose: 400.0 mg/kg/injection, schedule: Q01DX009 (ip), vehicle: saline with Tween-80).
